Laboratory results as given in patent US7285556B2, “Thienopyrimidine-based inhibitors of the src family” (Board of Regents, The University of Texas Systems, priority 2000, dated 2007).
Where two headings read alike, the source gives them in different places. Each block holds one compound with its values, some of them ahead of it.

Tests used:
Recombinant human Src = target: T1, Recombinant human Src (Homo sapiens, UniProt P12931); experiment: Src tyrosine kinase activity, poly E4Y and 32P-ATP; assay type: biochemical
T1 construct: made in house; host or cells: baculovirus-insect cell system
Method in brief: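 Recombinant GST-Csk (E. coli) or baculovirus-expressed human Src assayed on poly E4Y in 0.15 M EPPS-NaOH pH 8.0, 6 mM MgCl2, 0.2 mM γ32P-ATP, 10% glycerol, 0.1% Triton X-100. Read-out is 32P incorporation into poly E4Y; for ATP variation (0–250 μM), poly E4Y held at 150 μg/ml.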

Csk = target: T2, Csk (Homo sapiens, UniProt P41240); experiment: Csk tyrosine kinase activity, poly E4Y and 32P-ATP; assay type: biochemical; conditions: screening assay, 50 μg/ml poly E4Y, 0.2 mM 32P-ATP
T2 construct: GST (glutathione-S-transferase) (N); made in house; host or cells: E. coli (pGEX vector)
Protocol: Recombinant human Src was expressed using the baculovirus-insect cell system and purified as published (Budde et al., 1993 and 2000). Recombinant Csk and the FGF receptor (FGFr) were expressed as glutathione-S-transferase fusion proteins using the pGEX expression vector and E. coli, and purified as described (Sun & Budde, 1995).
The tyrosine kinase activity of Src, Csk and FGFr was determined using poly E4Y and ^32P-ATP. Briefly, enzymes were assayed in a reaction mixture consisting of 0.15 M EPPS-NaOH (pH 8.0) with 6 mM MgCl2, 0.2 mM γ^32P-ATP (0.2-0.4 mCi/μmol), 10% glycerol, 0.1% Triton X-100, and poly E4Y. Poly E4Y is a synthetic peptide whose phosphorylation is measured in this assay by the addition of the radioactively labeled phosphate from the ATP (Budde et al., 1995). […] When ATP was varied (0, 50, 100 and 250 μM), poly E4Y was kept constant at 150 μg/ml.

[1] = Table 2, read-out: Src IC50 (especially good inhibitors of Src)
[2] = read-out: IC50 (preferred compounds for treatment of Src family-related disease)
[3] = screening assay, 50 μg/ml poly E4Y, 0.2 mM 32P-ATP, read-out: Src IC50

T1 sequence (P12931 whole entry): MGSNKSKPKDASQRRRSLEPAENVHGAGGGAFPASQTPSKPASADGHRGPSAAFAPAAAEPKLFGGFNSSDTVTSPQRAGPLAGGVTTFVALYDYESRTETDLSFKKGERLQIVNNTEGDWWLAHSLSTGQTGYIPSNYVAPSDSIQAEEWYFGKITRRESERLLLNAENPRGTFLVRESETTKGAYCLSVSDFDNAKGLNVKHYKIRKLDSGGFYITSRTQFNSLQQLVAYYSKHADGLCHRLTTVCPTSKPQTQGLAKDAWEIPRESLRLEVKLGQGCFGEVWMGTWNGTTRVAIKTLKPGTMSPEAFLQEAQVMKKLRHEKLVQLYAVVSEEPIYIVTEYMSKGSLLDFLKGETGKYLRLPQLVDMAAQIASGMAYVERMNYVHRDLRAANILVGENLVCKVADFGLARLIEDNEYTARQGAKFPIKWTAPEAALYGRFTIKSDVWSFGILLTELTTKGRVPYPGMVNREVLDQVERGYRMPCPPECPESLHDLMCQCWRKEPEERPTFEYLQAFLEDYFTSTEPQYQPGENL

Structure (SMILES): Fc1ccc(C=NNc2ncnc3cc(-c4ccccc4)sc23)cc1 [Compound 75, 4-Fluorobenzaldehyde(6-phenylthieno[3,2-d]pyrimidin-4-yl)hydrazone]
- IC50 (Recombinant human Src; [1]): ≤ 2000 nM
- IC50 (Recombinant human Src; [2]): < 2000 nM
- IC50 (Csk): > 144000 nM

Structure (SMILES): C(=NNc1ncnc2c(-c3ccsc3)csc12)c1cccnc1 [Compound 209]
- IC50 (Recombinant human Src; [3]): > 148000 nM
- IC50 (Csk): > 148000 nM

Structure (SMILES): Brc1cc2ncnc(NN=Cc3cccnc3)c2s1 [Compound 221, 3-Pyridinecarboxaldehyde(6-bromothieno[3,2-d]pyrimidin-4-yl)hydrazone]
- IC50 (Recombinant human Src; [1]): ≤ 2000 nM
- IC50 (Recombinant human Src; [2]): < 2000 nM
- IC50 (Csk): > 150000 nM

Structure (SMILES): C(=NNc1ncnc2c1sc1ncccc12)c1cccs1 [Compound 244, 2-Thiophenecarboxaldehyde(pyrido[3′,2′:4,5]thieno[3,2-d]pyrimidin-4-yl)hydrazone]
- IC50 (Recombinant human Src; [1]): ≤ 2000 nM
- IC50 (Recombinant human Src; [2]): < 2000 nM
- IC50 (Csk): > 161000 nM

Structure (SMILES): COc1ccc(C=NNc2ncnc3c2sc2ncccc23)cc1O [Compound 247, 3-Hydroxy-4-methoxybenzaldehyde(pyrido[3′,2′:4,5]thieno[3,2-d]pyrimidin-4-yl)hydrazone]
- IC50 (Recombinant human Src; [1]): ≤ 2000 nM
- IC50 (Recombinant human Src; [2]): < 2000 nM
- IC50 (Csk): > 142000 nM

Structure (SMILES): C(=NNc1ncnc2cc(-c3ccccc3)sc12)c1ccncc1 [Compound 252, 4-Pyridinecarboxaldehyde(6-phenylthieno[3,2-d]pyrimidin-4-yl)hydrazone]
- IC50 (Recombinant human Src; [1]): ≤ 2000 nM
- IC50 (Recombinant human Src; [2]): < 2000 nM
- IC50 (Csk): > 151000 nM

Structure (SMILES): CCCc1csc2c(NN=Cc3cccnc3)ncnc12 [Compound 264, 3-Pyridinecarboxaldehyde(7-propylthieno[3,2-d]pyrimidin-4-yl)hydrazone]
- IC50 (Recombinant human Src; [1]): ≤ 2000 nM
- IC50 (Recombinant human Src; [2]): < 2000 nM
- IC50 (Csk): > 168000 nM

Structure (SMILES): Fc1ccc(-c2cc3ncnc(NN=Cc4cccnc4)c3s2)cc1 [Compound 278, 3-Pyridinecarboxaldehyde(6-(4-fluorophenyl)thieno[3,2-d]pyrimidin-4-yl)hydrazone]
- IC50 (Recombinant human Src; [1]): ≤ 2000 nM
- IC50 (Recombinant human Src; [2]): < 2000 nM
- IC50 (Csk): > 143000 nM

Structure (SMILES): CS(=O)(=O)c1ccc(-c2cc3ncnc(NN=Cc4cccnc4)c3s2)cc1 [Compound 290, 3-Pyridinecarboxaldehyde(6-(4-methanesulphonylphenyl)thieno-[3,2-d]pyrimidin-4-yl)hydrazone]
- IC50 (Recombinant human Src; [1]): ≤ 2000 nM
- IC50 (Recombinant human Src; [2]): < 2000 nM
- IC50 (Csk): > 122000 nM

Structure (SMILES): O=C(O)c1ccc(C=NNc2ncnc3cc(-c4ccc(Cl)cc4)sc23)cc1 [Compound 309, 4-Carboxybenzaldehyde(6-(4-chlorophenyl)thieno[3,2-d]pyrimidin-4-yl)hydrazone]
- IC50 (Recombinant human Src; [1]): ≤ 2000 nM
- IC50 (Recombinant human Src; [2]): < 2000 nM
- IC50 (Csk): > 122000 nM

Structure (SMILES): Clc1ccccc1-c1cc2ncnc(NN=Cc3cccnc3)c2s1 [Compound 317, 3-Pyridinecarboxaldehyde(6-(2-chlorophenyl)thieno[3,2-d]pyrimidin-4-yl)hydrazone]
- IC50 (Recombinant human Src; [1]): ≤ 2000 nM
- IC50 (Recombinant human Src; [2]): < 2000 nM
- IC50 (Csk): > 137000 nM

Structure (SMILES): Clc1ccccc1-c1cc2ncnc(NN=Cc3cccs3)c2s1 [Compound 320, 2-Thiophenecarboxaldehyde(6-(2-chlorophenyl)thieno[3,2-d]pyrimidin-4-yl)hydrazone]
- IC50 (Recombinant human Src; [1]): ≤ 2000 nM
- IC50 (Recombinant human Src; [2]): < 2000 nM
- IC50 (Csk): > 135000 nM

Structure (SMILES): Cc1c(-c2ccccc2)sc2c(NN=Cc3cccs3)ncnc12 [Compound 361, 2-Thiophenecarboxaldehyde(7-methyl-6-phenylthieno[3,2-d]pyrimidin-4-yl)hydrazone]
- IC50 (Recombinant human Src; [1]): ≤ 2000 nM
- IC50 (Recombinant human Src; [2]): < 2000 nM
- IC50 (Csk): > 143000 nM

Structure (SMILES): COc1ccc(C=NNc2ncnc3c(C)c(-c4ccccc4)sc23)cc1O [Compound 362, 3-Hydroxy-4-methoxybenzaldehyde(7-methyl-6-phenylthieno[3,2-d]pyrimidin-4-yl)hydrazone]
- IC50 (Recombinant human Src; [1]): ≤ 2000 nM
- IC50 (Recombinant human Src; [2]): < 2000 nM
- IC50 (Csk): > 128000 nM

Further lines, results first:

- IC50 (Recombinant human Src; [1]): ≤ 2000 nM
- IC50 (Recombinant human Src; [2]): < 2000 nM
- IC50 (Csk): > 168000 nM
Structure (SMILES): COc1ccc(C=NNc2ncnc3c(C)csc23)cc1 [Compound 14, 4-Methoxybenzaldehyde(7-methylthieno[3,2-d]pyrimidin-4-yl)hydrazone]

- IC50 (Recombinant human Src; [1]): ≤ 2000 nM
- IC50 (Recombinant human Src; [2]): < 2000 nM
- IC50 (Csk): > 186000 nM
Structure (SMILES): Cc1csc2c(NN=Cc3ccncc3)ncnc12 [Compound 16, 4-Pyridinecarboxaldehyde(7-methylthieno[3,2-d]pyrimidin-4-yl)hydrazone]

- IC50 (Recombinant human Src; [1]): ≤ 2000 nM
- IC50 (Recombinant human Src; [2]): < 2000 nM
- IC50 (Csk): > 152000 nM
Structure (SMILES): COc1ccc(C=NNc2ncnc3c(C)csc23)cc1OC [Compound 17, 3,4-Dimethoxybenzaldehyde(7-methylthieno[3,2-d]pyrimidin-4-yl)hydrazone]

- IC50 (Recombinant human Src; [1]): ≤ 2000 nM
- IC50 (Recombinant human Src; [2]): < 2000 nM
- IC50 (Csk): > 152000 nM
Structure (SMILES): COc1cc(C=NNc2ncnc3c(C)csc23)cc(OC)c1 [Compound 18, 3,5-Dimethoxybenzaldehyde(7-methylthieno[3,2-d]pyrimidin-4-yl)hydrazone]

- IC50 (Recombinant human Src; [1]): ≤ 2000 nM
- IC50 (Recombinant human Src; [2]): < 2000 nM
- IC50 (Csk): > 165000 nM
Structure (SMILES): Cc1csc2c(NN=Cc3cccc(Cl)c3)ncnc12 [Compound 19, 3-Chlorobenzaldehyde(7-methylthieno[3,2-d]pyrimidin-4-yl)hydrazone]

- IC50 (Recombinant human Src; [3]): > 160000 nM
- IC50 (Csk): > 160000 nM
Structure (SMILES): Cc1csc2c(NN=Cc3ccc([N+](=O)[O-])cc3)ncnc12 [Compound 24]

- IC50 (Recombinant human Src; [1]): ≤ 2000 nM
- IC50 (Recombinant human Src; [2]): < 2000 nM
- IC50 (Csk): > 194000 nM
Structure (SMILES): Cc1csc2c(NN=Cc3ccc[nH]3)ncnc12 [Compound 30, 1H-Pyrrole-2-carboxaldehyde(7-methylthieno[3,2-d]pyrimidin-4-yl)hydrazone]

- IC50 (Recombinant human Src; [1]): ≤ 2000 nM
- IC50 (Recombinant human Src; [2]): < 2000 nM
- IC50 (Csk): > 194000 nM
Structure (SMILES): Cc1csc2c(NN=Cc3ccco3)ncnc12 [Compound 31, 2-Furancarboxaldehyde(7-methylthieno[3,2-d]pyrimidin-4-yl)hydrazone]

- IC50 (Recombinant human Src; [1]): ≤ 2000 nM
- IC50 (Recombinant human Src; [2]): < 2000 nM
- IC50 (Csk): > 176000 nM
Structure (SMILES): Cc1csc2c(NN=Cc3cccc(O)c3)ncnc12 [Compound 32, 3-Hydroxybenzaldehyde(7-methylthieno[3,2-d]pyrimidin-4-yl)hydrazone]

- IC50 (Recombinant human Src; [1]): ≤ 2000 nM
- IC50 (Recombinant human Src; [2]): < 2000 nM
- IC50 (Csk): > 182000 nM
Structure (SMILES): Cc1csc2c(NN=Cc3ccsc3)ncnc12 [Compound 33, 3-Thiophenecarboxaldehyde(7-methylthieno[3,2-d]pyrimidin-4-yl)hydrazone]

- IC50 (Recombinant human Src; [3]): > 176000 nM
- IC50 (Csk): > 176000 nM
Structure (SMILES): Cc1csc2c(NN=Cc3ccccc3O)ncnc12 [Compound 44]

- IC50 (Recombinant human Src; [1]): ≤ 2000 nM
- IC50 (Recombinant human Src; [2]): < 2000 nM
- IC50 (Csk): > 160000 nM
Structure (SMILES): CCOc1ccc(C=NNc2ncnc3c(C)csc23)cc1 [Compound 48, 4-Ethoxybenzaldehyde(7-methylthieno[3,2-d]pyrimidin-4-yl)hydrazone]

- IC50 (Recombinant human Src; [1]): ≤ 2000 nM
- IC50 (Recombinant human Src; [2]): < 2000 nM
- IC50 (Csk): > 152000 nM
Structure (SMILES): CCOc1cc(C=NNc2ncnc3c(C)csc23)ccc1O [Compound 50, 3-Ethoxy-4-hydroxybenzaldehyde(7-methylthieno[3,2-d]pyrimidin-4-yl)hydrazone]

- IC50 (Recombinant human Src; [1]): ≤ 2000 nM
- IC50 (Recombinant human Src; [2]): < 2000 nM
- IC50 (Csk): > 175000 nM
Structure (SMILES): Cc1csc2c(NN=Cc3cccc(F)c3)ncnc12 [Compound 52, 3-Fluorobenzaldehyde(7-methylthieno[3,2-d]pyrimidin-4-yl)hydrazone]

- IC50 (Recombinant human Src; [1]): ≤ 2000 nM
- IC50 (Recombinant human Src; [2]): < 2000 nM
- IC50 (Csk): > 159000 nM
Structure (SMILES): COc1cc(C=NNc2ncnc3c(C)csc23)ccc1O [Compound 53, 4-Hydroxy-3-methoxybenzaldehyde(7-methylthieno[3,2-d]pyrimidin-4-yl)hydrazone]

- IC50 (Recombinant human Src; [1]): ≤ 2000 nM
- IC50 (Recombinant human Src; [2]): < 2000 nM
- IC50 (Csk): > 173000 nM
Structure (SMILES): Cc1ccc(C=NNc2ncnc3c(C)csc23)s1 [Compound 120, 5-Methyl-2-thiophenecarboxaldehyde(7-methylthieno[3,2-d]pyrimidin-4-yl)hydrazone]

- IC50 (Recombinant human Src; [1]): ≤ 2000 nM
- IC50 (Recombinant human Src; [2]): < 2000 nM
- IC50 (Csk): > 170000 nM
Structure (SMILES): Cc1csc2c(NN=Cc3ccc(C#N)cc3)ncnc12 [Compound 121, 4-Cyanobenzaldehyde(7-methylthieno[3,2-d]pyrimidin-4-yl)hydrazone]

- IC50 (Recombinant human Src; [1]): ≤ 2000 nM
- IC50 (Recombinant human Src; [2]): < 2000 nM
- IC50 (Csk): > 170000 nM
Structure (SMILES): Cc1csc2c(NN=Cc3cccc(C#N)c3)ncnc12 [Compound 122, 3-Cyanobenzaldehyde(7-methylthieno[3,2-d]pyrimidin-4-yl)hydrazone]

- IC50 (Recombinant human Src; [1]): ≤ 2000 nM
- IC50 (Recombinant human Src; [2]): < 2000 nM
- IC50 (Csk): > 168000 nM
Structure (SMILES): COc1cccc(C=NNc2ncnc3c(C)csc23)c1 [Compound 137, 3-Methoxybenzaldehyde(7-methylthieno[3,2-d]pyrimidin-4-yl)hydrazone]

- IC50 (Recombinant human Src; [1]): ≤ 2000 nM
- IC50 (Recombinant human Src; [2]): < 2000 nM
- IC50 (Csk): > 160000 nM
Structure (SMILES): CCOc1cccc(C=NNc2ncnc3c(C)csc23)c1 [Compound 138, 3-Ethoxybenzaldehyde(7-methylthieno[3,2-d]pyrimidin-4-yl)hydrazone]

- IC50 (Recombinant human Src; [1]): ≤ 2000 nM
- IC50 (Recombinant human Src; [2]): < 2000 nM
- IC50 (Csk): > 150000 nM
Structure (SMILES): Brc1csc2c(NN=Cc3cccnc3)ncnc12 [Compound 180, 3-Pyridinecarboxaldehyde(7-bromothieno[3,2-d]pyrimidin-4-yl)hydrazone]

- IC50 (Recombinant human Src; [1]): ≤ 2000 nM
- IC50 (Recombinant human Src; [2]): < 2000 nM
- IC50 (Csk): > 176000 nM
Structure (SMILES): CCc1csc2c(NN=Cc3cccnc3)ncnc12 [Compound 257, 3-Pyridinecarboxaldehyde(7-ethylthieno[3,2-d]pyrimidin-4-yl)hydrazone]
